Data from ChEMBL document CHEMBL3792276, “Design and synthesis of diamide-coupled benzophenones as potential anticancer agents” (Eur J Med Chem, 2016).
Active and inactive are the calls of the source. The rule behind the calls is not given here.

What was measured:
[1] = test system: Mus musculus; assay: Decrease in ascites fluid secretion in Swiss albino mouse allografted with mouse DLA cells at 75 mg/kg, ip administered as 3 doses on alternative days post 4 days of tumor implantation; type: functional, organism-based
[2] = (§1) Cytotoxicity against mouse DLA cells after 48 hrs by MTT assay; type: functional, cell-based
[3] = test system: A549; assay: Cytotoxicity against human A549 cells after 48 hrs by trypan blue assay; type: functional, cell-based
[4] = Antitumor activity against mouse DLA cells allografted in Swiss mouse assessed as increase in animal survival time at 75 mg/kg, ip administered as 3 doses on alternative days post 4 days of tumor implantation; type: functional
[5] = test system: Mus musculus; assay: Decrease in cell count Swiss albino mouse allografted with mouse DLA cells at 75 mg/kg, ip administered as 3 doses on alternative days post 4 days of tumor implantation; type: functional, organism-based
[6] = test system: MCF7; assay: Cytotoxicity against human MCF7 cells after 48 hrs by LDH leak assay; type: functional, cell-based
[7] = (§2) Cytotoxicity against mouse DLA cells after 48 hrs by trypan blue assay; type: functional, cell-based
[8] = test system: A549; assay: Cytotoxicity against human A549 cells after 48 hrs by MTT assay; type: functional, cell-based
[9] = (§3) Cytotoxicity against mouse DLA cells after 48 hrs by LDH leak assay; type: functional, cell-based
[10] = test system: Chorioallantoic membrane; assay: Antiangiogenic activity in chicken chorioallantoic membrane assessed as inhibition of rVEGF-induced neovascularization measured upto 12 days; type: functional; settings: Gallus gallus
[11] = Antitumor activity against mouse DLA cells allografted in Swiss albino mouse assessed as induction of tumor regression at 75 mg/kg, ip administered as 3 doses on alternative days post 4 days of tumor implantation; type: functional
[12] = Antitumor activity against mouse DLA cells allografted in Swiss albino mouse assessed as inhibition of tumor growth at 75 mg/kg, ip administered as 3 doses on alternative days post 4 days of tumor implantation measured after final dose of drug challenge; type: functional; settings: 96 h
[13] = test system: A549; assay: Cytotoxicity against human A549 cells after 48 hrs by LDH leak assay; type: functional, cell-based
[14] = species on record: Mus musculus; assay: Antiangiogenic activity against Swiss albino mouse allografted with mouse DLA cells assessed as decrease in peritoneal angiogenesis measured as […]; type: functional
[15] = test system: MCF7; assay: Cytotoxicity against human MCF7 cells after 48 hrs by MTT assay; type: functional, cell-based
[16] = test system: MCF7; assay: Cytotoxicity against human MCF7 cells after 48 hrs by trypan blue assay; type: functional, cell-based
[17] = test system: DLA; assay: as §1; type: functional, cell-based
[18] = test system: DLA; assay: as §2; type: functional, cell-based
[19] = test system: DLA; assay: as §3; type: functional, cell-based

Row | SMILES | Activity [17] | Activity [3] | Activity [6] | Activity [18] | Activity [8] | Activity [19] | Activity [13] | Activity [15] | Activity [16] | also measured
1 | Cc1cc(C(=O)c2ccc(Br)cc2)ccc1OCC(=O)Nc1ccccc1NC(=O)COc1ccc(C(=O)c2ccccc2C)cc1C |  |  |  |  |  |  |  |  |  | inhibition [1]: Active; IC50 [2]: 23 µM; IC50 ([3]; A549, 48 h): 20 µM; MST [4]: 37 days; inhibition [5]: Active; IC50 ([6]; MCF7, 48 h): 23 µM; IC50 [7]: 23 µM; IC50 ([8]; A549, 48 h): 20 µM; IC50 [9]: 23 µM; inhibition [10]: Active; fold change (FC) [11]: 2.5; inhibition in vivo at 75 mg/kg [12]: 80%; IC50 ([13]; A549, 48 h): 20 µM; inhibition (INH) [14]: >50%; IC50 ([15]; MCF7, 48 h): 23 µM; IC50 ([16]; MCF7, 48 h): 23 µM
2 | Cc1cc(C(=O)c2ccccc2)ccc1OCC(=O)Nc1ccccc1NC(=O)COc1ccc(C(=O)c2ccccc2)cc1C | inactive | inactive | inactive | inactive | inactive | inactive | inactive | inactive | inactive | 
3 | Cc1cc(C(=O)c2ccc(Br)cc2)ccc1OCC(=O)Nc1ccccc1NC(=O)COc1ccc(C(=O)c2ccc(Br)cc2)cc1C | inactive | inactive | inactive | inactive | inactive | inactive | inactive | inactive | inactive | 
4 | O=c1[nH]cc(F)c(=O)[nH]1 | inactive | inactive | inactive | inactive | inactive | inactive | inactive | inactive | inactive | 
5 | Cc1cc(C(=O)c2ccccc2)ccc1OCC(=O)Nc1ccccc1NC(=O)COc1ccc(C(=O)c2ccc(Br)cc2)cc1C | inactive | inactive | inactive | inactive | inactive | inactive | inactive | inactive | inactive | 
6 | Cc1ccc(C(=O)c2ccc(OCC(=O)Nc3ccccc3NC(=O)COc3ccc(C(=O)c4ccc(Br)cc4)cc3C)c(C)c2)cc1 | inactive | inactive | inactive | inactive | inactive | inactive | inactive | inactive | inactive | 
7 | Cc1cc(C(=O)c2ccccc2)ccc1OCC(=O)Nc1ccccc1NC(=O)COc1cc(C)c(C(=O)c2ccccc2)cc1C | inactive | inactive | inactive | inactive | inactive | inactive | inactive | inactive | inactive | 
8 | Cc1cc(C(=O)c2ccccc2)c(C)cc1OCC(=O)Nc1ccccc1NC(=O)COc1cc(C)c(C(=O)c2ccccc2)cc1C | inactive | inactive | inactive | inactive | inactive | inactive | inactive | inactive | inactive | 
9 | Cc1cc(C(=O)c2ccc(Br)cc2)ccc1OCC(=O)Nc1ccccc1NC(=O)COc1cc(C)c(C(=O)c2ccccc2)cc1C | inactive | inactive | inactive | inactive | inactive | inactive | inactive | inactive | inactive | 
10 | Cc1cc(C(=O)c2ccccc2)ccc1OCC(=O)Nc1ccccc1NC(=O)COc1ccc(C(=O)c2ccccc2C)cc1C | inactive | inactive | inactive | inactive | inactive | inactive | inactive | inactive | inactive | 
11 | Cc1cc(C(=O)c2ccc(Br)cc2)ccc1OCC(=O)Nc1ccccc1NC(=O)COc1c(F)cc(C(=O)c2ccc(Cl)cc2)cc1Cl | inactive | inactive | inactive | inactive | inactive | inactive | inactive | inactive | inactive | 
12 | Cc1cc(C(=O)c2ccccc2)ccc1OCC(=O)Nc1ccccc1NC(=O)COc1c(F)cc(C(=O)c2ccc(Cl)cc2)cc1Cl | inactive | inactive | inactive | inactive | inactive | inactive | inactive | inactive | inactive | 
13 | Cc1ccc(C(=O)c2ccc(OCC(=O)Nc3ccccc3NC(=O)COc3ccc(C(=O)c4ccccc4)cc3C)c(C)c2)cc1 | inactive | inactive | inactive | inactive | inactive | inactive | inactive | inactive | inactive | 
